Data as given in US20240197694A1, “MODIFIED PROTEINS AND PROTEIN BINDERS” (Cullgen (Shanghai), Inc., priority 2021, published 2024).

Target: T1, DCAF1 (1058-1396) (Homo sapiens, UniProt Q9Y4B6)
T1 construct: a fragment of a DCAF1 protein that includes amino acid residues A1058 to E1396; His6 (N, cleaved yes); made in house; host or cells: Sf9 insect cells (Bac-to-Bac baculovirus, pFastBacHT vector)
Test: Surface plasmon resonance (SPR) binding assay, compound binding to DCAF1
Settings: immobilized DCAF1 (1058-1396), steady state affinity model, 25° C.
Method: Binding affinities of specific exemplary compounds to DCAF1 (1058-1396), which is a fragment of a DCAF1 protein that includes amino acid residues A1058 to E1396 were determined by a surface plasmon resonance (SPR) assay. Briefly, purified DCAF1 (1058-1396) proteins were immobilized at a density of 9,000-11,000 resonance units (RUs) on a CMS sensor chip. Sensorgrams were recorded at different concentrations of compounds in multi-cycle kinetic format. Data were analyzed using a steady state affinity model through Biacore Evaluation Software to provide equivalent dissociation constants (Kd).
Binding affinities of compounds to DCAF1 were determined by a surface plasmon resonance (SPR) assay. Purified DCAF1 (1058-1396) proteins were immobilized on a CMS sensor chip, and a dose range of compound solutions were injected in multi-cycle kinetic format. Data were analyzed using a steady state model to provide equivalent dissociation constants (Kd).
Protein Expression and Purification: Human DCAF1 (1058-1396) (UniPro: Q9Y4B6) coding sequences were cloned into pFastBacHT vector and were expressed in Sf9 cells using Bac-to-Bac baculovirus expression system (Thermo Fisher Scientific). The expression construct for DCAF1 (1058-1396) included a N-terminal His6-tag to facilitate the purification. DCAF1 (1058-1396) proteins were obtained from supernatants of cell lysates and purified through sequential application of Ni affinity chromatography (Ni-NTA column, Bio-Rad), Tag removal using TEV protease, and size-exclusion chromatography (Superdex 200 column, GE Healthcare).
Surface plasmon resonance (SPR) binding assays: SPR studies were performed on a Biacore X100 plus or T200 instrument (GE Healthcare). Immobilization of purified DCAF1 (1058-1396) was carried out at 25° C. using a CMS sensor chip. The surface was pre-equilibrated in HBS-EP running buffer (10 mM HEPES, pH 7.4, 150 mM NaCl, 3 mM EDTA, 0.05% P20), before being activated with EDC/NHS. DCAF1 (1058-1396) was immobilized through amino groups to a density of 9,000-12,000 resonance units (RUs) on flow cell channel 2 (FC2), whereas flow cell channel 1 (FC1) was used as reference. Both DCAF1 immobilized and reference surfaces were deactivated with 1 M ethanolamine.
Interaction experiments were performed at 25° C. The compounds were prepared and serially diluted in HBS-EP running buffer containing final 2% DMSO (6-point two-fold serial dilution, 100 μM -3.125 μM final concentration of compounds). Compound Solutions were injected individually in multi-cycle kinetic format without regeneration (flow rate 30 μL/min, association time 60 s, dissociation time 60 s). Sensorgrams from reference surfaces and blank injections were subtracted from the raw data (double-referenced) and the data was solvent-corrected prior to analysis. Data were analyzed using a steady state affinity model through Biacore Evaluation Software to provide equivalent dissociation constants (Kd).

T1 sequence (Q9Y4B6 1058-1396): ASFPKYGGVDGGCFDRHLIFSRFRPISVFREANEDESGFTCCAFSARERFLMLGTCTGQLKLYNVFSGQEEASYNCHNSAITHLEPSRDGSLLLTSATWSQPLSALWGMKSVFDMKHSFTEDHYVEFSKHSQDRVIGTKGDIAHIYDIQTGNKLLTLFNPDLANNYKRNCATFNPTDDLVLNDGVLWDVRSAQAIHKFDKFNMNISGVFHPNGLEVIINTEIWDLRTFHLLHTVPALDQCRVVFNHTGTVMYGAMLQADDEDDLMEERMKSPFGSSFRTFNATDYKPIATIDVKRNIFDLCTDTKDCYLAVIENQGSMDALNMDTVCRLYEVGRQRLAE

Compound | Kd [µM]
Cc1ccc2c(c1)C1CN(C)CCC1N2C(=O)/C=C/c1nccs1 (stereo not drawn) [CPD-081, (E)-1-(2,8-dimethyl-1,2,3,4,4a,9b-hexahydro-5H-pyrido [4,3-b]indol-5-yl)-3-(thiazol-2-yl)prop-2-en-1-one] | > 100
NCCCCCCn1cccc1C(=O)NCc1ccncc1 [CPD-004, 1-(6-aminohexyl)-N-(pyridin-4-ylmethyl)-1H-pyrrole-2-carboxamide] | 40 to 70
Cc1ccc2[nH]c3c(c2c1)CN(CC1(CC(=O)O)CC1)CC3 [CPD-055, 2-(1-((8-methyl-1,3,4,5-tetrahydro-2H-pyrido[4,3-b]indol-2-yl)methyl)cyclopropyl) acetic acid] | > 100
Nc1nc(CCN2CCc3[nH]c4ccc(F)cc4c3C2)cs1 [CPD-053, 4-(2-(8-fluoro-1,3,4,5-tetrahydro-2H-pyrido[4,3-b]indol-2-yl)ethyl)thiazol-2-amine] | 40 to 70
COc1cc(CNCc2cnc[nH]2)ccn1 [CPD-025, N-((1H-imidazol-5-yl)methyl)-1-(2-methoxypyridin-4-yl) methanamine] | > 100
Cc1cccc2c1[C@@H]1CN(C)CC[C@H]1N2C (racemic) [CPD-040, trans-2,5,9-trimethyl-2,3,4,4a,5,9b-hexahydro-1H-pyrido[4,3-b]indole] | > 100
Cn1cccc1CNCC1CC(c2nncn2C)CC1O (stereo not drawn) [CPD-099, 2-((((1-methyl-1H-pyrrol-2-yl)methyl)amino)methyl)-4-(4-methyl-4H-1,2,4-triazol-3-yl)cyclopentan-1-ol] | 40 to 70
O=C(CCN1CCc2[nH]c3ccc(Cl)cc3c2C1)N1CCOCC1 [CPD-049, 3-(8-chloro-1,3,4,5-tetrahydro-2H-pyrido[4,3-b]indol-2-yl)-1-morpholinopropan-1-one] | ≤ 40
CN(CC1Cc2ccccc2CN1C)C(=O)Cn1cnc2ccccc21 (stereo not drawn) [CPD-095, 2-(1H-benzo[d]imidazol-1-yl)-N-methyl-N-((2-methyl-1,2,3,4-tetrahydroisoquinolin-3-yl)methyl)acetamide] | 40 to 70
Cc1ccc2c(c1)C1CN(C)CCC1N2C(=O)c1cc2c(s1)CCCC2 (stereo not drawn) [CPD-073, (2,8-dimethyl-1,2,3,4,4a,9b-hexahydro-5H-pyrido[4,3-b]indol-5-yl)(4,5,6,7-tetrahydrobenzo[b]thiophen-2-yl)methanone] | > 100
Cc1ccc2[nH]c3c(c2c1)CN(C)CC3 [CPD-019, 2,8-dimethyl-2,3,4,5-tetrahydro-1H-pyrido[4,3-b]indole] | 40 to 70
Cc1ccc2c(c1)C1CN(C)CCC1N2S(=O)(=O)c1c([N+](=O)[O-])ccc(C)c1C (stereo not drawn) [CPD-078, 5-((2,3-dimethyl-6-nitrophenyl)sulfonyl)-2,8-dimethyl-2,3,4,4a,5,9b-hexahydro-1H-pyrido[4,3-b]indole] | > 100
COc1ccc2cc(CNCc3cncn3CC(C)C)c(=O)[nH]c2c1 [CPD-104, 3-((((1-isobutyl-1H-imidazol-5-yl)methyl)amino)methyl)-7-methoxyquinolin-2(1H)-one] | 70 to 100
NCCCCCCn1c2c(c3cc(F)ccc31)CN(CCc1cnn[nH]1)CC2 [CPD-014, 6-(2-(2-(1H-1,2,3-triazol-5-yl)ethyl)-8-fluoro-1,2,3,4-tetrahydro-5H-pyrido[4,3-b]indol-5-yl)hexan-1-amine] | 40 to 70
OCCCNCc1cccn1-c1ccccc1 [CPD-101, 3-(((1-phenyl-1H-pyrrol-2-yl)methyl)amino)propan-1-ol] | > 100
Cc1ccc2c(c1)[C@H]1CN(C)CC[C@H]1N2C (racemic) [CPD-036, cis-2,5,8-trimethyl-2,3,4,4a,5,9b-hexahydro-1H-pyrido [4,3-b]indole] | > 100
O=c1cc(CNCc2cnc[nH]2)cc[nH]1 [CPD-026, 4-((((1H-imidazol-5-yl)methyl)amino)methyl)pyridin-2(1H)-one] | > 100
Cc1ccc2c(c1)C1CN(C)CCC1N2C(=O)c1nc(Cl)ccc1Cl (stereo not drawn) [CPD-066, (3,6-dichloropyridin-2-yl) (2,8-dimethyl-1,2,3,4,4a,9b-hexahydro-5H-pyrido[4,3-b]indol-5-yl)methanone] | > 100

Compound | Kd [µM]
COc1cccc2c3c([nH]c12)CCN(C)C3 [CPD-047, 6-methoxy-2-methyl-2,3,4,5-tetrahydro-1H-pyrido[4,3-b]indole] | > 100
O=C(NCCn1ncc2ccccc2c1=O)C1Cc2ccccc2CN1 (stereo not drawn) [CPD-098, N-(2-(1-oxophthalazin-2(1H)-yl)ethyl)-1,2,3,4-tetrahydroisoquinoline-3-carboxamide] | 40 to 70
CN1CCc2[nH]c3ccc(Cl)cc3c2C1 [CPD-046, 8-chloro-2-methyl-2,3,4,5-tetrahydro-1H-pyrido[4,3-b]indole] | > 100
Cc1cccc2c1[C@H]1CN(C)CC[C@H]1N2C (racemic) [CPD-042, cis-2,5,9-trimethyl-2,3,4,4a,5,9b-hexahydro-1H-pyrido[4,3-b]indole] | > 100
Cc1ccc2c(c1)C1CN(C)CCC1N2C(=O)/C(=C/c1ccc(Cl)cc1)c1ccc(F)cc1 (stereo not drawn) [CPD-088, (E)-3-(4-chlorophenyl)-1-(2,8-dimethyl-1,2,3,4,4a,9b-hexahydro-5H-pyrido[4,3-b]indol-5-yl)-2-(4-fluorophenyl)prop-2-en-1-one] | 40 to 70
O=C(CCN1CCc2[nH]c3ccccc3c2C1)N1CCOCC1 [CPD-048, 1-morpholino-3-(1,3,4,5-tetrahydro-2H-pyrido[4,3-b]indol-2-yl)propan-1-one] | ≤ 40
OCC1(CNCc2cnc[nH]2)CC1 [CPD-105, (1-((((1H-imidazol-5-yl)methyl)amino)methyl)cyclopropyl) methanol] | ≤ 40
CN1Cc2ccccc2CC1CNc1ncccc1F (stereo not drawn) [CPD-007, 3-fluoro-N-((2-methyl-1,2,3,4-tetrahydroisoquinolin-3-yl)methyl)pyridin-2-amine] | > 100
Cc1ccc(CCn2c3c(c4ccccc42)CN(C)CC3)cn1 [CPD-059, 2-methyl-5-(2-(6-methylpyridin-3-yl)ethyl)-2,3,4,5-tetrahydro-1H-pyrido[4,3-b]indole] | 40 to 70
Cc1ccc2c(c1)C1CN(C)CCC1N2C(=O)C[C@@H](n1cccn1)C(F)(F)F (stereo partly drawn) [CPD-080, (R)-1-(2,8-dimethyl-1,2,3,4,4a,9b-hexahydro-5H-pyrido [4,3-b]indol-5-yl)-4,4,4-trifluoro-3-(1H-pyrazol-1-yl)butan-1-one] | > 100
CCCCNCc1cccn1-c1ccccc1 [CPD-100, N-((1-phenyl-1H-pyrrol-2-yl)methyl)butan-1-amine] | 70 to 100
Cc1ccc2c(c1)C1CN(C)CCC1N2C(=O)/C=C/c1ccccc1 (stereo not drawn) [CPD-083, (E)-1-(2,8-dimethyl-1,2,3,4,4a,9b-hexahydro-5H-pyrido [4,3-b]indol-5-yl)-3-phenylprop-2-en-1-one] | > 100
Clc1ccc2[nH]c3c(c2c1)CN(CCc1cnn[nH]1)CC3 [CPD-008, 2-(2-(1H-1,2,3-triazol-5-yl)ethyl)-8-chloro-2,3,4,5-tetrahydro-1H-pyrido[4,3-b]indole] | 40 to 70
Cc1ccc2c(c1)C1CN(C)CCC1N2c1nc(S(=O)(=O)c2ccccc2)c(Cl)s1 (stereo not drawn) [CPD-061, 5-chloro-2-(2,8-dimethyl-1,2,3,4,4a,9b-hexahydro-5H-pyrido [4,3-b]indol-5-yl)-4-(phenylsulfonyl)thiazole] | > 100
Cc1ccc2c(c1)[C@@H]1CN(C)CC[C@H]1N2C(=O)/C=C/c1nccs1 (racemic) [CPD-035, (E)-1-(trans-2,8-dimethyl-1,2,3,4,4a,9b-hexahydro-5H-pyrido [4,3-b]indol-5-yl)-3-(thiazol-2-yl)prop-2-en-1-one] | > 100
Clc1cc(CNCc2cnc[nH]2)cc2c1OCO2 [CPD-030, N-((1H-imidazol-5-yl)methyl)-1-(7-chlorobenzo[d][1,3]dioxol-5-yl)methanamine] | > 100
CN1Cc2ccccc2CC1CNc1nccc(-c2ccncc2)n1 (stereo not drawn) [CPD-090, N-((2-methyl-1,2,3,4-tetrahydroisoquinolin-3-yl)methyl)-4-(pyridin-4-yl)pyrimidin-2-amine] | 40 to 70
Cc1ccc2[nH]c3c(c2c1)C[N+](C)(C)CC3 [CPD-021, 2,2,8-trimethyl-2,3,4,5-tetrahydro-1H-2λ^4-pyrido[4,3-b]indol-3-ylium] | > 100
